Several values for one entry are separate records, joined by “and”; a condition that tells them apart may be missing. Identical values can stand only once.
Columns and labels:
[1] = test system: β-arrestin1 recruitment to AT1R; test: BRET recruitment of β-arrestin1 to AT1R; assay type: cell-based, human; conditions: for AngII-promoted BRET, β-arrestin1 (Barr1) recruitment to AT1R: Comp 21 50 μM, individual experiments
Description: HEK293SL cells were seeded at a density of 7.5 × 10^5 cells per 100-mm dish and 24 h later, transiently transfected as such. For receptor internalization experiments, cells were transfected with 0.12 μg AT1R-RlucII, B2R-RlucII, or β2AR-RlucII and 0.48 μg of either rGFP-CAAX (to assess removal from the PM) or rGFP-FYVE (to assess accumulation in the endosomes). For β-arrestin recruitment assays, cells were transfected with 0.48 μg of receptor-YFP along with 0.12 μg of β-arrestin-RlucII. For β-arrestin/AP-2 binding experiments, cells were transfected with 1 μg Flag-AT1R, 1 μg β2-Adaptin-YFP, and 0.12 μg β-arrestin2-RlucII. For G protein activation, cells were transfected with 3 μg of sp-Flag-AT1R along with either 4.5 μg of the Gαq-polycistronic BRET sensor or 0.24 μg of the Gαi3-RlucII and 0.6 μg of GFP10-Gγ2 and Gβ1 sensors or 0.12 μg PKN-RBD-RlucII and 0.48 μg of rGFP-CAAX. For PKC activation, cells were transfected with 3 μg of sp-Flag-AT1R and 0.18 μg of the PKC sensor. For GTPase activation experiments, cells were transfected with 1 μg Flag-AT1R, 0.48 μg of rGFP-CAAX, and either 0.12 μg of GGA3-PBD-RlucII, PAK-CRIB-RlucII or Raf-RBD-RlucII. For biosensor validation experiments, cells were additionally transfected with 500 ng Flag-K-Ras-WT, Flag-K-Ras-G12V, Flag-K-Ras-SOS-CAAX, HA-ARF6-WT, HA-ARF6-T27N, Myc-Rac1-WT, Myc-Rac1-Q61L or Myc-Rac1-T17N. For PI3K/Akt activation experiments, cells were transfected with 0.48 μg of rGFP-CAAX and 0.12 μg of Akt (PH)-RlucII. After 18 h of transfection, the media was replaced and cells were divided for subsequent experiments. Cells were detached and seeded onto poly-L-ornithine-coated 96-well flat white bottom plates (BrandTech Scientific) at a density of 2.5 × 10^4 cells per well in media. The next day, cells were washed once with Tyrode’s buffer (140 mM NaCl, 2.7 mM KCl, 1 mM CaCl2, 12 mM NaHCO3, 5.6 mM D-glucose, 0.5 mM MgCl2, 0.37 mM NaH2PO4, 25 mM HEPES, pH 7.4) and left in Tyrode’s buffer. For kinetics of β-arrestin recruitment or β-arrestin binding to receptor and AP-2 experiments, cells were serum starved for 30 min, pretreated with 21 (50 µM) or Barbadin (100 µM) for 30 min, stimulated with 100 nM AngII or 1 µM BK and BRET signals were monitored at indicated times using a Victor X Light plate reader (PerkinElmer). Coelenterazine H (final concentration of 5 µM) was added 3–5 min prior to BRET measurements. Filter set was 460/80 nm and 535/30 nm for detecting the RlucII Renilla luciferase (donor) and YFP (acceptor) light emissions, respectively. The BRET ratio was determined by calculating the ratio of the light emitted by YFP over the light emitted by the RlucII. For G protein activation, cells were serum starved, pretreated with compounds for 30 min, stimulated with 100 nM AngII for 2 min (Gαq, Gαi3, and Rho sensors) or 5 min (PKC sensor). For the kinetics of GTPase and PI3K/Akt activation, cells were serum starved, pretreated with 21 (50 µM) or Wortmannin (200 nM) for 30 min, stimulated with ligand (100 nM AngII or 100 ng/ml EGF) and BRET signals were monitored at indicated times. For concentration-response curves, cells were serum-starved, pretreated with various concentrations of compounds for 30 min and stimulated with ligand (100 nM AngII, 1 µM BK, 10 µM Isoproterenol (Iso) or 100 ng/ml EGF) in Tyrode’s buffer for 30 min for receptor internalization, 10 min for ARF6, 2 min for Rac and Rho activation and 5 min for Ras activation and PI3K/Akt activation. BRET signals were monitored using a Synergy2 (BioTek) microplate reader and coelenterazine 400a (final concentrations of 5 µM) added 3–5 min prior to BRET measurements. Filter set was 410/80 nm and 515/30 nm for detecting the RlucII Renilla luciferase (donor) and rGFP/GFP10 (acceptor) light emissions, respectively. The BRET ratio was determined by calculating the ratio of the light emitted by rGFP/GFP10 over the light emitted by the RlucII.

β-arrestin2 = test: Confocal microscopy of β-arrestin2-YFP trafficking with AT1R; assay type: cell-based, human; conditions: 50 μM; AngII
Description: One day before transfection, cells were seeded in 35-mm glass-bottom dishes (MatTek Corporation) at a density of 1 × 10^5 cells per dish. For the recordings of receptor internalization, HEK293 SL cells were transfected with 2 μg of AT1R-YFP. For the recordings of β-arrestin-2 recruitment to the receptor, HEK293SL cells were transfected with 50 ng of β-arrestin2-YFP and 250 ng of Flag-AT1R or HA-B2R. Forty-eight hours post-transfection, cells were serum starved, preincubated with DMSO (0.1% final concentration) or Rasarfin (50 μM) for 30 min at 37 °C. AT1R-expressing cells were stimulated with angiotensinII (AngII; 100 nM) and B2R-expressing cells were stimulated with bradykinin (BK; 1 μM) for 30 min (receptor-YFP) or 15 min (β-arrestin2-YFP). Cells were imaged with Zeiss LSM-510 and/or LSM-710 laser scanning confocal microscope. To detect YFP, […] and BP 505–550 nm emission filter. Images (2048 × 2048) were collected using a 63x oil immersion lens.

AT1R = conditions: Barbadin 100 µM; cited from earlier work

Row | Compound | β-arrestin1 recruitment to AT1R at the PM ([1]; 50 μM) | AngII-promoted BRET, β-arrestin1 (Barr1) recruitment to AT1R ([1]; time 0 min) | AngII-promoted BRET, β-arrestin1 (Barr1) recruitment to AT1R ([1]; time 5 min) | AngII-promoted BRET, β-arrestin1 (Barr1) recruitment to AT1R ([1]; time 10 min) | AngII-promoted BRET, β-arrestin1 (Barr1) recruitment to AT1R ([1]; time 15 min) | AngII-promoted BRET, β-arrestin1 (Barr1) recruitment to AT1R ([1]; time 30 min) | AngII-promoted BRET, β-arrestin1 (Barr1) recruitment to AT1R ([1]; time 60 min) | β-arrestin trafficking with AT1R into endosomes (microscopy) (β-arrestin2) | receptor internalization (AT1R)
1 | CC(C)C(=O)N1CCN(c2ccc(NC(=O)c3cc4ccccc4o3)cc2Cl)CC1 [Compound 21] | did not preclude | 0 | 0.07621 and 0.08371 and 0.04185 | 0.1164 and 0.1114 and 0.05569 | 0.1198 and 0.1209 and 0.06044 | 0.1393 and 0.143 and 0.07152 | 0.1361 and 0.1426 and 0.1043 | prevented β-arrestins’ trafficking with receptors into endosomes | –
2 | Nn1cnc2scc(-c3ccc(Cc4ccccc4)cc3)c2c1=O [Barbadin, reference compound] | – | – | – | – | – | – | – | – | blocked receptor internalization
